Laboratory results: patent US8324267B2, “Kinase inhibitors and the use thereof” (Forschungzentrum Karlsruhe GmbH, priority 2001, dated 2012)
“Also recorded” adds a separate entry of the source.

Experiments:
VEGFR-3 = VEGFR-3 (Homo sapiens, UniProt P35916); assay: In vitro tyrosine kinase assay (ELISA, GST kinase, polyGlu,Tyr 4:1 acceptor); format: biochemical; conditions: read-out: inhibition (−) or stimulation (+) of kinase activity relative to the control; for inhibition at 1 µg/mL: inhibitor 1 μg/ml; for inhibition at 10 µg/mL: inhibitor 10 μg/ml
VEGFR-3, sequence (P35916 25-1363): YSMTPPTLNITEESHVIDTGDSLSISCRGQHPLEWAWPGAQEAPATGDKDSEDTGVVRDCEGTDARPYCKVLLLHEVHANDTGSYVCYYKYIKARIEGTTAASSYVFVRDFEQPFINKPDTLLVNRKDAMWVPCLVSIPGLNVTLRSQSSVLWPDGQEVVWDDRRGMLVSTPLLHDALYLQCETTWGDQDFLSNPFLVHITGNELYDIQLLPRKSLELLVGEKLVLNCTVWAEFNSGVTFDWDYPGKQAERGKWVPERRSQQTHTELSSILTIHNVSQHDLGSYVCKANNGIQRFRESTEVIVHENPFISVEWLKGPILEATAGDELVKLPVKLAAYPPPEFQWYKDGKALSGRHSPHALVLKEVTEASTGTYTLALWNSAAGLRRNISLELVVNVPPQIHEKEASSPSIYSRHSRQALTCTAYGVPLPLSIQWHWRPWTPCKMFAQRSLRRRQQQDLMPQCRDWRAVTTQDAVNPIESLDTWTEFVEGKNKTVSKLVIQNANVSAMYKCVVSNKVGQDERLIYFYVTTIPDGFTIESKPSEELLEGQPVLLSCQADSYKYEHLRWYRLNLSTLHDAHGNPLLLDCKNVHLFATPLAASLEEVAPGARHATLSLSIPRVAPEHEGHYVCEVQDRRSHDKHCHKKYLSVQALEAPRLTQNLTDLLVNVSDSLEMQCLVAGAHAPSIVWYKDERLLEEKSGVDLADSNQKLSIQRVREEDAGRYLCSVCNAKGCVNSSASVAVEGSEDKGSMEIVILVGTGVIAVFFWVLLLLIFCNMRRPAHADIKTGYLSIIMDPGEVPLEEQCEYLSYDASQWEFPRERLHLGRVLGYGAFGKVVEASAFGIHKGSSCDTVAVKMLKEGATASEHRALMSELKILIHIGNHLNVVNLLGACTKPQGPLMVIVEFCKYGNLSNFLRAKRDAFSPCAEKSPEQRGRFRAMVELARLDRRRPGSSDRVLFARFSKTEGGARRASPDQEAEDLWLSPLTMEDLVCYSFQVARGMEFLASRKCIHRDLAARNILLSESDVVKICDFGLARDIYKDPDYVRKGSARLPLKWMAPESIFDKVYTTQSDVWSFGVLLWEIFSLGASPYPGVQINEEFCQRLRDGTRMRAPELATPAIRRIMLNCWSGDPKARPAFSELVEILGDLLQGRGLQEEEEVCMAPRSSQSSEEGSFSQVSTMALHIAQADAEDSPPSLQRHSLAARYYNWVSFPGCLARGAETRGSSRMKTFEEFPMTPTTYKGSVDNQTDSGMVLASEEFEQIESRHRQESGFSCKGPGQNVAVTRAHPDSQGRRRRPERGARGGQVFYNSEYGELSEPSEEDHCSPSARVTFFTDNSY
Method: (§1) The inhibition of various receptor tyrosine kinases in vitro by MAE87, MAE106 and MAZ51 was investigated. The inhibitors were investigated in 2 different concentrations (1 μg/ml and 10 μg/ml). The inhibition is stated in %. “+”=stimulation of kinase activity relative to the control,
(§2) “−”=inhibition of kinase activity relative to the control.
(§3) The activity of the RTK inhibitors were determined with the aid of an ELISA. In this assay, the corresponding kinases were employed as recombinant GST fusion proteins (glutathione S-transferase). Synthetic polyGlu, Tyr 4:1 is used as acceptor. The ability of different concentrations of the test substances to inhibit the RTK-mediated phosphorylation of the abovementioned acceptor was assessed. All the tests were carried out in duplicate.
(§4) ELISA plates were coated with 0.2 mg/ml of polyGlu, Tyr 4:1 in 100 mM bicarbonate buffer (pH 9.6) overnight. This solution was removed and the microtiter plates were washed twice with TBS buffer (10 mM Tris-HCl, pH 8.1, 100 mM NaCl) and then blocked with 5% BSA/TBS for 30 min. 50 μl of test substance (2 or 20 μg/ml in 10% DMSO), 25 μl of GST kinase in 4× kinase buffer (200 mM HEPES, 100 mM NaCl, 80 μM Na3VO4 and 0.04% BSA) were introduced. The reaction was started by adding 25 μl of 160 μM ATP (in 40 mM MnCl2) as substrate of the kinases. The final concentrations of the test compounds is thus 1 or 10 μg/ml in 5% DMSO. The GST fusion proteins were employed in the following concentrations. VEGFR-2 50 NG/well, VEGFR-3 300 ng/well, Tie2 300 ng/well, EGFR 50 ng/well, ErbB2 200 ng/well, IGF-1R 50 ng/well, FGFR1 200 ng/well. The reaction mixture was incubated at 30° C. for 90 min. The kinase reaction was stopped by adding 50 μl of 30 mM EDTA/well. The microtiter plates were washed twice with 0.05% Tween20/TBS. Anti-phosphotyrosine antibody (1:500) was added in 0.05% Tween20/TBS (with 0.5% BSA, 0.025% skimmed milk powder and 100 μM Na3VO4) and incubated at 37° C. for 1 h. The microtiter plates were washed three times with 0.05% Tween20/TBS. The HRP-conjugated detection autibody (1:1000) was added in 0.05% Tween20/TBS (with 0.5% BSA, 0.025% skimmed milk powder and 100 μM Na3VO4) and incubated at 37° C. for 1 h. The microtiter plates were washed three times with 0.05% Tween20/TBS. ABTS (2,2′-azino-di-(3-ethylbenz-thiazoline-6-sulfonate)) substrate (Roche Diagnostics GmbH, Mannheim) was added. The OD was determined at 405 nm using an ELISA reader.

IGF1R = IGF1R (Homo sapiens, UniProt P08069); assay: as above; format: biochemical; conditions: read-out: inhibition (−) or stimulation (+) of kinase activity relative to the control; for inhibition at 1 µg/mL: inhibitor 1 μg/ml; for inhibition at 10 µg/mL: inhibitor 10 μg/ml
IGF1R, sequence (P08069 31-1367): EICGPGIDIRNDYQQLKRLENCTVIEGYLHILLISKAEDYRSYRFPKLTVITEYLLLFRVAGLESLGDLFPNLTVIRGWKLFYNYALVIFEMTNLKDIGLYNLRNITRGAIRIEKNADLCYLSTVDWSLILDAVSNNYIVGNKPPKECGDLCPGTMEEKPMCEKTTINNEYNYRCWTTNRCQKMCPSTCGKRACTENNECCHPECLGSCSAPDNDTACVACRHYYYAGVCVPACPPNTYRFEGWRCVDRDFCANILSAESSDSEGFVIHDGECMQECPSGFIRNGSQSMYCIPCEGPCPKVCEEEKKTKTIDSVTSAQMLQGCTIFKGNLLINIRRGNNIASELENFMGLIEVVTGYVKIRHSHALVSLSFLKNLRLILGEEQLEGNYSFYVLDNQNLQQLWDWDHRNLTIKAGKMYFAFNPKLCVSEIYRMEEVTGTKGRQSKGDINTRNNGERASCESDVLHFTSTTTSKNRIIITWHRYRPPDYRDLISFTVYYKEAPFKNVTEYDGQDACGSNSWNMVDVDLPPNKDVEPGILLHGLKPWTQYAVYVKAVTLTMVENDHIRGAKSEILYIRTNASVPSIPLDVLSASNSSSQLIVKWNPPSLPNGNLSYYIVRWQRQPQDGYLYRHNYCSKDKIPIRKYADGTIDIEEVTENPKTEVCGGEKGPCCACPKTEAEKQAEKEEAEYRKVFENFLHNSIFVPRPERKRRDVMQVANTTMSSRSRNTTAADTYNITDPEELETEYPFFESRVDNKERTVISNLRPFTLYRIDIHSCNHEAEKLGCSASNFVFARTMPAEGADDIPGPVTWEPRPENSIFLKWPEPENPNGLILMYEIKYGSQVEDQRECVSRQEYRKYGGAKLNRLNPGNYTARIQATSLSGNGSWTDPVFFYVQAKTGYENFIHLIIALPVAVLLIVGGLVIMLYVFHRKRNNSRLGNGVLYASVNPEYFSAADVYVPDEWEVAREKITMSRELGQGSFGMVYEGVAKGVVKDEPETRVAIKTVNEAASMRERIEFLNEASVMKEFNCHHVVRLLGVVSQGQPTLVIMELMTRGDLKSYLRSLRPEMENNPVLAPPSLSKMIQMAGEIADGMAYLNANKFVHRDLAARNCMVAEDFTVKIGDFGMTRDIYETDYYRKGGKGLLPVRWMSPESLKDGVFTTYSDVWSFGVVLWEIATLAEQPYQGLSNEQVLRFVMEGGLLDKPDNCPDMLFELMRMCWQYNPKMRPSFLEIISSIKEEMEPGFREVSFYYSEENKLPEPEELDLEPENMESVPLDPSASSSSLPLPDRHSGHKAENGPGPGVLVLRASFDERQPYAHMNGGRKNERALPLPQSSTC
Method: as §1, §2, §3, §4

EGFR = EGFR (Homo sapiens, UniProt P00533); assay: as above; format: biochemical; conditions: read-out: inhibition (−) or stimulation (+) of kinase activity relative to the control; for inhibition at 1 µg/mL: inhibitor 1 μg/ml; for inhibition at 10 µg/mL: inhibitor 10 μg/ml
EGFR, sequence (P00533 25-1210): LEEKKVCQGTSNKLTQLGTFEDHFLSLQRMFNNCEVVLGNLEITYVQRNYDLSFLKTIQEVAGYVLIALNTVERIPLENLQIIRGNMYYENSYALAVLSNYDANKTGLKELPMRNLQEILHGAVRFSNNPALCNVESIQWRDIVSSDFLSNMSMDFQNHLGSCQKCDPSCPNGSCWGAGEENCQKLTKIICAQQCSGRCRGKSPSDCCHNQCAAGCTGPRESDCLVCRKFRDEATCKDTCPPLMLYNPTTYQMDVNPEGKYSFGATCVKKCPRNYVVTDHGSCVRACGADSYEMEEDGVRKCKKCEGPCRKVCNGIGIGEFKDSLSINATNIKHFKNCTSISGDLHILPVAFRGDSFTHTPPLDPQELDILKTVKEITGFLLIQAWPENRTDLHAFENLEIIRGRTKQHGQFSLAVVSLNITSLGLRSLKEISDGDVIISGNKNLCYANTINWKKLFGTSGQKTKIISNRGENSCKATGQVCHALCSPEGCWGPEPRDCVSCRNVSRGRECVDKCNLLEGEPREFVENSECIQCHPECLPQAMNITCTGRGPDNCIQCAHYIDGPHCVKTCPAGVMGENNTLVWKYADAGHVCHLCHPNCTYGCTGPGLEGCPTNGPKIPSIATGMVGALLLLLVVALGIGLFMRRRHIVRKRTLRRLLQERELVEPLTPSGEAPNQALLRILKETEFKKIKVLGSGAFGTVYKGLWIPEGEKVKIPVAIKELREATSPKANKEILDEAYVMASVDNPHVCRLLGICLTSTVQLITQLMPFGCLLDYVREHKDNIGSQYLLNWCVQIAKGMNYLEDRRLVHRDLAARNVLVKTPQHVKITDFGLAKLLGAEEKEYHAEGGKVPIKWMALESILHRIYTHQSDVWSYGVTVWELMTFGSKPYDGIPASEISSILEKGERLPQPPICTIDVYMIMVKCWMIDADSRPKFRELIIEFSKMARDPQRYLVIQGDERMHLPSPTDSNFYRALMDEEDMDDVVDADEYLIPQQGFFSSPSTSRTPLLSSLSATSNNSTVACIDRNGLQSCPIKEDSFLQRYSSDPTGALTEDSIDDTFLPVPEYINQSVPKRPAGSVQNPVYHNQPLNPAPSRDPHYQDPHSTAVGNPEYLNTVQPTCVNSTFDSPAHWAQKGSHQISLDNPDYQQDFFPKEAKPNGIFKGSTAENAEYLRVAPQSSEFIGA
Method: as §1, §2, §3, §4

[1] = test system: chorioallantoic membrane (CAM); assay: Chorioallantoic membrane (CAM) angiogenesis assay; format: in vivo; conditions: chick embryos, 100 μg of inhibitor on methylcellulose disk, day 5 to day 7; FIG. 3
Method: The chorioallantoic membrane (CAM) assay was carried out as described (Wernert et al.) with chick embryos 5 days after fertilization. Methylcellulose disks (diameter 2 mm) with 100 μg of inhibitor were applied to the CAMs. Evaluation took place on day 7. A. negative control B. MAE 106-treated egg.
FIG. 3: Inhibition of angiogenesis in a chorioallantoic membrane (CAM). A: sham-treated cells (control). B: Mae106-treated cells of the CAM.

[2] = test system: Human umbilical vein endothelial cells (HUVEC); assay: Endothelial cell proliferation, 3H-thymidine incorporation; format: cell-based; conditions: 24 h, FIG. 2
Method: Human umbilical vein endothelial cells (HUVEC) underwent serum-starved cultivation for 24 h. The cells were then preincubated with the appropriate compounds for 2 h and subsequently cultivated in the presence of the inhibitors with VEGF (MAE87) or bFGF (MAE106, MAZ51) for a further 24 h. The cells were then incubated with ^3H-thymidine. The amount of radioactivity incorporated into the cellular DNA was measured. All the experiments were carried out in triplicate.
HUVE cells were seeded in 100 μl/well (10^5 cells/ml) in 96-well culture plates and left to rest overnight. The cells were then starved with 50 μl of serum-free medium/well for 24 h. Subsequently, 50 μl of various concentrations of the test substances in serum-free medium (contains 2% DMSO) were added and incubated at 37° C. for 2 h. The medium containing the test compounds was removed and replaced by 50 μl of fresh medium with bFGF (12.5 ng/ml) or VEGF (100 ng/ml). Fresh dilutions of the doubly concentrated test substances in serum-free medium with 2% DMSO were added to the cells in 50 μl/well. The final concentration of DMSO was always 1%. After 24 h, ^3H-thymidine (1 μCi/well) was added, and the cells were incubated for a further 4-6 h. To analyze the incorporated radioactivity, the cells were trypsinized for 30 min and harvested with the aid of a harvester 96 cell (Tomtec) and fixed on a glass fiber membrane filter. The immobilized radioactivity was quantified with the aid of a MicroBeta TriLux liquid scintillation luminescence counter. The result is depicted in FIG. 2.
FIG. 2: Measurement of the (^3H)-thymidine incorporation into human endothelial cells (HUVEC) as a function of the concentration of inhibitors employed (MAE87, MAE106 and MAZ51). The inhibition of cell proliferation by MAE87, MAE106 and MAZ51 is dose-dependent in this case.

rat carcinoma cell lines = assay: Apoptosis in rat tumor cell lines, nucleosome ELISA; format: cell-based; conditions: 2.5 μM or 10 μM, 24 h, FIG. 6
Method: Cells of the rat tumor cell line (Nestl et al., 2001, Cancer Research 61: 1569-1577) were cultivated in the presence of 1% DMSO (solvent control), 2.5 μM or 10 μM of the indolinone for 24 h. Apoptosis was quantified with the aid of anti-DNA peroxidase antibody. The amount of dye produced in the chromogenic reaction catalyzed by the peroxidase was measured by photometry at 405 nm and correlated with the amount of apoptosis-associated cytoplasmic mono- and oligonucleosomes. The data are stated in % apoptosis relative to the cells of the solvent control (% relative to control) (FIG. 6).
FIG. 6: Nucleosome ELISA test (Cell Death Detection ELISA). The extent of dead cells of the respective rat tumor cell line is depicted (apoptosis in %) in relation to the use of the inhibitors MAE87, MAE106 and MAZ51.

inhibition at 1 µg/mL (VEGFR-3) [%] | inhibition at 10 µg/mL (VEGFR-3) [%] | inhibition at 1 µg/mL (IGF1R) [%] | inhibition at 10 µg/mL (IGF1R) [%] | inhibition at 1 µg/mL (EGFR) [%] | inhibition at 10 µg/mL (EGFR) [%] | Compound | inhibition of angiogenesis (network of blood vessels) in the CAM [1] | inhibition of cell proliferation (3H-thymidine incorporation) ([2]; bFGF stimulated) | induction of apoptosis (% relative to solvent control) (rat carcinoma cell lines) | inhibition of cell proliferation (3H-thymidine incorporation) ([2]; VEGF stimulated)
-1 | 57 | 10 | 71 | 5 | 64 | COc1ccc(C=C2C(=O)Nc3ccccc32)cc1F [MAE106, 3-(3-Fluoro-4-methoxybenzylidene)-1,3-dihydroindole-2-one] | highly underdeveloped | dose-dependent | induce cell death | –
9 | 74 | 63 | 94 | 70 | 86 | O=C1Nc2ccccc2C1=Cc1ccc(O)cc1O [MAE87, 3-(2,4-Dihydroxybenzylidene)-1,3-dihydroindol-2-one] | Inhibit Angiogenesis | – | induce cell death | dose-dependent
4 | 35 | 10 | 68 | 25 | 58 | CN(C)c1ccc(C=C2C(=O)Nc3ccccc32)c2ccccc12 [MAZ51, 3-(4-Dimethylaminonaphthalen-1-ylmethylene)-1,3-dihydroindol-2-one] | Inhibit Angiogenesis | dose-dependent | most potent apoptosis inducer; also recorded: induce cell death | –
